In patent publication US10513521B2, “Compositions and methods for inhibiting BMP” (The Brigham and Women's Hospital, Inc., priority 2014, dated 2019):
Positions count from the first letter of the chain named. Like-named read-outs stand apart in the source and are kept apart here.

Assays:
ALK4 = target: T1, ALK4 (Homo sapiens, UniProt P36896); test: TR-FRET enzymatic ALK kinase assay, ALK4
T1 sequence (P36896 24-505): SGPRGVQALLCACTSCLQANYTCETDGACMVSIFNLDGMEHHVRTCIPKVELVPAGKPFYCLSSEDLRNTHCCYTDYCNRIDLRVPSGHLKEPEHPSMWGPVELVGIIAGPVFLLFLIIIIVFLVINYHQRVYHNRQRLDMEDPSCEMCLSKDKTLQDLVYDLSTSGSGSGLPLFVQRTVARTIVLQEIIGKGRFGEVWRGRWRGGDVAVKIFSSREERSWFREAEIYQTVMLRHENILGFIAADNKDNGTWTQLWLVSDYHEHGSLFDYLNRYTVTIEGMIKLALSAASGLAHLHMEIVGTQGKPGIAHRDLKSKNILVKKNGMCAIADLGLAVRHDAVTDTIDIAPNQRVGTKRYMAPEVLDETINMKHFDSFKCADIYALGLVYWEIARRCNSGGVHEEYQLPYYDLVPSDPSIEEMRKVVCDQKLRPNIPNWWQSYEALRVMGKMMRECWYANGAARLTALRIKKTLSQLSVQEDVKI
Description: (§1) Briefly, the ALKs enzymatic assay was initiated by dispense 2.5 μl enzyme in 1× kinase reaction buffer. The assay plate was then added with compounds followed by incubation at room temperature for 10 minutes. Then 2.5 μl/well substrate was added.

ALK6 = ALK6 (Homo sapiens, UniProt O00238); test: TR-FRET enzymatic ALK kinase assay, ALK6
Description: as §1

ALK2 [1] = target: T2, ALK2 (Homo sapiens, UniProt Q04771); test: TR-FRET enzymatic ALK kinase assay, ALK2
T2 sequence (Q04771 21-509): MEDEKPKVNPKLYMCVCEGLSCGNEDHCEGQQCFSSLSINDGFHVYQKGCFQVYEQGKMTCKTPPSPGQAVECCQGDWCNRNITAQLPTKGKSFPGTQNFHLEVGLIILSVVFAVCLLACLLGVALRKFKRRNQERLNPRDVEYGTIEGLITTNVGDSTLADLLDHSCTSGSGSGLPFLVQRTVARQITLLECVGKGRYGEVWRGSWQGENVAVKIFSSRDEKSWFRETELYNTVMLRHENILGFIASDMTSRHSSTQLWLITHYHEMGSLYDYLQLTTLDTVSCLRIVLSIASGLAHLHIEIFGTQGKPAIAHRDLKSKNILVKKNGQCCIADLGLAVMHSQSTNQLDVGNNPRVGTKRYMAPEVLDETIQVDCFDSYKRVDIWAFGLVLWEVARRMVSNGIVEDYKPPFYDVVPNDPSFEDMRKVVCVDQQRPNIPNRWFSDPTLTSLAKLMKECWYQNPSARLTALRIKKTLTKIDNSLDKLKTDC
Description: as §1

ALK1 = ALK1 (Homo sapiens, UniProt P37023); test: TR-FRET enzymatic ALK kinase assay, ALK1
Description: as §1

ALK3 = ALK3 (Homo sapiens, UniProt P36894); test: TR-FRET enzymatic ALK kinase assay, ALK3
Description: as §1

ALK2 [2] = target: T3, ALK2 (Mus musculus, UniProt P37172); test: HTRF pSMAD1 cell-based ALK2 assay (C2C12 cells, BMP6 as agonist); details: BMP6
T3 construct: The C2C12 cell line was selected for the measurement of ALK2 activity using BMP6 as the agonist; host or cells: C2C12
T3 sequence (P37172 21-509): T2 sequence (Q04771 21-509) with M1V, P10Q, L121I, D162E, P310S
Description: 2. HTRF Cell-Based ALK1 and ALK2 Assays in 384-Well Plate Format We have developed a cell based ALK1 kinase assay and a cell-based ALK2 assay. The BAOEC cell line was employed for the measurement of ALK1 activity using BMP9 as the agonist. The C2C12 cell line was selected for the measurement of ALK2 activity using BMP6 as the agonist. The kinase specificity was defined by the specific cell line and agonist. The kinase activity was determined by the status of SMD 1/5/8 phosphorylation stimulated by the agonist.
HyClone Fetal Bovine Serum was obtained from GE healthcare life sciences (Logan, Utah). BMP6 and BMP9 were purchased from R&D System. […] The compound plates and the white solid MB assay plates were purchased from Greiner Bio-one (Monroe, N.C.).
HTRF optimization experiments were performed in 384 well plate format. […] Pre-starved cells were then plated in 384 well plate in the starvation medium (containing in 0.1% FBS). After 4 hours, compounds were added to the assay plate and incubated for 30 minutes. The assay plate was then added with BMP6 for C2C12 cells or BMP9 for BAOEC cells and incubated for 30 minutes.
HTRF assay was performed to measure the status of SMAD 1 phosphorylation after stimulated with the agonist (Table 3). This HTRF phospho SMAD1 cell assay was developed and optimized for the homogenous detection of phospho SMAD 1 levels in cells. […] The plate was incubated at room temperature for overnight.

ALK5 = target: T4, ALK5 (Homo sapiens, UniProt P36897); test: TR-FRET enzymatic ALK kinase assay, ALK5
T4 sequence (P36897 34-503): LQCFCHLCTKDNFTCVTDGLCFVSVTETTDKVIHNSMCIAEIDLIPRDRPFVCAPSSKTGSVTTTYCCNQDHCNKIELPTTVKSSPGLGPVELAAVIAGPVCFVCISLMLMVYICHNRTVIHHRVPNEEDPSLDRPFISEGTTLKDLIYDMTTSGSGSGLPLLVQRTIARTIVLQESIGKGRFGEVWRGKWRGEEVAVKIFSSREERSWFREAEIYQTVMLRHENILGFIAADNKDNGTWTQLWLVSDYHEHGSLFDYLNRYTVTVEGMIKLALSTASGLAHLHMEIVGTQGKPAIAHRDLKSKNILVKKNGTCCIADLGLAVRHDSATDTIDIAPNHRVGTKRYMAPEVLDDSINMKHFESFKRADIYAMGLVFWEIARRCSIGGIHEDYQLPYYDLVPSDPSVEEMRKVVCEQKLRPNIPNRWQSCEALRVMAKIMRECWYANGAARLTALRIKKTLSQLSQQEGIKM
Description: Six ALK kinase enzyme assays were developed for determination of compound activities on ALK1, ALK2, ALK3, ALK4, ALK5 and ALK6.
as §1

[3] = cell-based assay, read-out: Cell IC50 BMP6
[4] = Cell IC50 BMP6, cell-based assay

Chain of ALK1 (P37023 22-503): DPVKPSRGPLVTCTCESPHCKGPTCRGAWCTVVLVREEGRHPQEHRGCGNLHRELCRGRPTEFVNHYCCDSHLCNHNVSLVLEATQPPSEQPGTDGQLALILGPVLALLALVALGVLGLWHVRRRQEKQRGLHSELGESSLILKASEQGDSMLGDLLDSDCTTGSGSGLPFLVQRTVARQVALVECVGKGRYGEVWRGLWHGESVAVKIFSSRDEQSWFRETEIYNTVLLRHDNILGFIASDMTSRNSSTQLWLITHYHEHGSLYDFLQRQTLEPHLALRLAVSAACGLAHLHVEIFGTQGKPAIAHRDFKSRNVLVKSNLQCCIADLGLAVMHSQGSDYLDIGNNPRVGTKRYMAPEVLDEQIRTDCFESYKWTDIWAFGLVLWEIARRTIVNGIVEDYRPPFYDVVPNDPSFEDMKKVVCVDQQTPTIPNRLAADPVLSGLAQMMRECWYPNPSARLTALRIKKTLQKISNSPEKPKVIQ
Chain of ALK3 (P36894 24-532): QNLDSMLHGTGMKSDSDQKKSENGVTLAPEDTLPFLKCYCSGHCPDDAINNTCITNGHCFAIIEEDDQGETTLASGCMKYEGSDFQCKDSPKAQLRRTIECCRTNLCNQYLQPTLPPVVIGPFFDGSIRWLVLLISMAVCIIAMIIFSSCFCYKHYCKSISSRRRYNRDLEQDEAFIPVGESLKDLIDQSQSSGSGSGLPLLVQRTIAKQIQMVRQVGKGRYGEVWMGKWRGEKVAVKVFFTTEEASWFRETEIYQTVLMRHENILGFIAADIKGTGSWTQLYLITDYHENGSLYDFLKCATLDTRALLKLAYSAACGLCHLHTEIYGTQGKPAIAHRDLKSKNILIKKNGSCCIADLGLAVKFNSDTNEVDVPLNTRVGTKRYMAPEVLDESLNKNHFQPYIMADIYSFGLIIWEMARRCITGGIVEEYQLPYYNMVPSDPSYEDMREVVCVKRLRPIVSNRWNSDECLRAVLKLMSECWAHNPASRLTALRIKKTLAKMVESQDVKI
Chain of ALK6 (O00238 14-502): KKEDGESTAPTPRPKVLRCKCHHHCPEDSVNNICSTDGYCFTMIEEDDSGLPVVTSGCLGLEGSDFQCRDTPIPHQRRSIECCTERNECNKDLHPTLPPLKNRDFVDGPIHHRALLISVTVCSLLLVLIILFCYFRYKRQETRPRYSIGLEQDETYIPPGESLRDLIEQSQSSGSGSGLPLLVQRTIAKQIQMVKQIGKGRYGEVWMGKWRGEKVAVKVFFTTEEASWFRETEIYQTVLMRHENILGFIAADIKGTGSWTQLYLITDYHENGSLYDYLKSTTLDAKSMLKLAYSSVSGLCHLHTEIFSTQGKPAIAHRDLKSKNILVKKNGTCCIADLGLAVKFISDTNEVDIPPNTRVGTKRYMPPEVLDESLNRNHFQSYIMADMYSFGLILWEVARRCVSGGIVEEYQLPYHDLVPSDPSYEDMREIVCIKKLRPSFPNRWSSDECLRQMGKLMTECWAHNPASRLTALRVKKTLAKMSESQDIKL

SMILES	IC50 (ALK4)	IC50 (ALK6)	IC50 (ALK2 [1])	IC50 (ALK1)	IC50 (ALK3)	IC50 (ALK2 [2]; [3])	IC50 (ALK5)	IC50 (ALK2 [2]; [4])
C[C@@H]1CNC[C@H](C)N1c1ccc(-c2cnc3c(-c4cccc(CCO)c4)cnn3c2)cc1 [Compound 70, 2-(3-(6-(4-((2R,6S)-2,6-dimethylpiperazin-1-yl)phenyl)pyrazolo[1,5-a]pyrimidin-3-yl)phenyl)ethanol]	> 10 µM	> 10 µM	0.066 µM	0.28 µM	2.8 µM	1.2 µM	> 10 µM	–
NS(=O)(=O)c1ccc(-c2cnn3cc(-c4ccc(N5CCNCC5)nc4)cnc23)c2ccccc12 [Compound 49, 4-(6-(6-(piperazin-1-yl)pyridin-3-yl)pyrazolo[1,5-a]pyrimidin-3-yl)naphthalene-1-sulfonamide]	> 10 µM	> 10 µM	–	1.7 µM	–	–	> 10 µM	0.316 µM
C[C@@H]1CNC[C@H](C)N1c1ccc(-c2cnc3c(-c4ccc(S(N)(=O)=O)c(N)c4)cnn3c2)cc1 [Compound 57, 2-amino-4-(6-(4-((2R,6S)-2,6-dimethylpiperazin-1-yl)phenyl)pyrazolo[1,5-a]pyrimidin-3-yl)benzenesulfonamide]	> 10 µM	> 10 µM	–	0.76 µM	–	0.75 µM	> 10 µM	–
C[C@@H]1CNC[C@H](C)N1c1ccc(-c2cnc3c(-c4cccc(S(N)(=O)=O)c4)cnn3c2)cc1 [Compound 60, 3-(6-(4-((2R,6S)-2,6-dimethylpiperazin-1-yl)phenyl)pyrazolo[1,5-a]pyrimidin-3-yl)benzenesulfonamide]	> 10 µM	> 10 µM	–	0.21 µM	–	0.609 µM	> 10 µM	–
CC(C)(CN1CCCCC1)Oc1ccc(-c2cnc3c(-c4ccc(S(N)(=O)=O)c5ccccc45)cnn3c2)cc1 [Compound 52, 4-(6-(4-((2-methyl-1-(piperidin-1-yl)propan-2-yl)oxy)phenyl)pyrazolo[1,5-a]pyrimidin-3-yl)naphthalene-1-sulfonamide]	> 10 µM	> 10 µM	–	0.17 µM	–	–	> 10 µM	0.008 µM
CC(O)c1cccc(-c2cnn3cc(-c4ccc(CCN5CCC(O)CC5)cc4)cnc23)c1 (centres unmarked) [Compound 151, 1-(4-(3-(3-(1-hydroxyethyl)phenyl)pyrazolo[1,5-a]pyrimidin-6-yl)phenethyl)piperidin-4-ol]	> 10 µM	> 10 µM	0.11 µM	0.82 µM	4.3 µM	–	> 10 µM	–
CC(O)c1cccc(-c2cnn3cc(-c4ccc(C(F)(F)CN5CCCCC5)cc4)cnc23)c1 (centres unmarked) [Compound 127, 1-(3-(6-(4-(1,1-difluoro-2-(piperidin-1-yl)ethyl)phenyl)pyrazolo[1,5-a]pyrimidin-3-yl)phenyl)ethanol]	> 10 µM	> 10 µM	1.7 µM	4.8 µM	> 10 µM	–	> 10 µM	–
CC(O)c1cccc2c(-c3cnn4cc(-c5ccc(N6[C@H](C)CNC[C@@H]6C)cc5)cnc34)cccc12 (stereo partly drawn) [Compound 33, 1-(5-(6-(4-((2R,6S)-2,6-dimethylpiperazin-1-yl)phenyl)pyrazolo[1,5-a]pyrimidin-3-yl)naphthalen-1-yl)ethanol]	16.3 µM	16.2 µM	0.367 µM	1.53 µM	7.83 µM	–	40.4 µM	–

The next lines start with results.

IC50 (ALK4)	IC50 (ALK6)	IC50 (ALK2 [1])	IC50 (ALK1)	IC50 (ALK3)	IC50 (ALK2 [2]; [3])	IC50 (ALK5)	SMILES	IC50 (ALK2 [2]; [4])
> 10 µM	> 10 µM	0.14 µM	0.93 µM	> 10 µM	2.25 µM	> 10 µM	C[C@@H]1CNC[C@H](C)N1c1ccc(-c2cnc3c(-c4cccc(C#N)c4)cnn3c2)cc1 [Compound 69, 3-(6-(4-((2R,6S)-2,6-dimethylpiperazin-1-yl)phenyl)pyrazolo[1,5-a]pyrimidin-3-yl)benzonitrile]	–
–	–	–	–	–	0.225 µM	–	CS(=O)(=O)c1cccc(-c2cnn3cc(-c4ccc(OCCn5ccnc5)cc4)cnc23)c1 [Compound 102, 6-(4-(2-(1H-imidazol-1-yl)ethoxy)phenyl)-3-(3-(methylsulfonyl)phenyl)pyrazolo[1,5-a]pyrimidine]	–
> 10 µM	> 10 µM	0.044 µM	0.46 µM	2.5 µM	–	> 10 µM	CS(=O)(=O)c1cccc(-c2cnn3cc(-c4ccc(C5(N)CC5)cc4)cnc23)c1 [Compound 190, 1-(4-(3-(3-(methylsulfonyl)phenyl)pyrazolo[1,5-a]pyrimidin-6-yl)phenyl)cyclopropanamine]	–
> 10 µM	> 10 µM	0.11 µM	0.58 µM	4.9 µM	–	> 10 µM	CC(O)c1cccc(-c2cnn3cc(-c4ccc(C5CCCNC5)cc4)cnc23)c1 (centres unmarked) [Compound 138, 1-(3-(6-(4-(piperidin-3-yl)phenyl)pyrazolo[1,5-a]pyrimidin-3-yl)phenyl)ethanol]	–
> 10 µM	> 10 µM	0.18 µM	1 µM	6.1 µM	–	> 10 µM	C[C@@H](O)c1cccc(-c2cnn3cc(-c4ccc(CCN5CCC(O)CC5)cc4)cnc23)c1 [Compound 159, (R)-1-(4-(3-(3-(1-hydroxyethyl)phenyl)pyrazolo[1,5-a]pyrimidin-6-yl)phenethyl)piperidin-4-ol]	–
> 10 µM	> 10 µM	0.23 µM	0.67 µM	> 10 µM	–	> 10 µM	CS(=O)(=O)c1cccc(-c2cnn3cc(-c4ccc(CCn5ccnc5)cc4)cnc23)c1 [Compound 133, 6-(4-(2-(1H-imidazol-1-yl)ethyl)phenyl)-3-(3-(methylsulfonyl)phenyl)pyrazolo[1,5-a]pyrimidine]	–
